According to patent US6888014B2, “Dammarane sapogenins, their use as anti-cancer agents, and a process for producing same” (PanaGin Pharmaceuticals Inc., priority 2001, dated 2005):

Legend:
[1] = system: Human non-small-cell lung carcinoma H460 cells; experiment: Cancer cell inhibition in vitro, crystal violet staining, cell viability; assay type: cell-based; conditions: for V(%) cancer cell viability / Absorbency of Stained Cells (M ± SD) / viability at 40 µg/mL / viability at 25 µg/mL: H460 cells, 24 hours; for Absorbency of Stained Cells (M ± SD): 590 nm; for inhibitory effect on proliferation of H460 cells (in words): P<0.01 compared with control; for viability at 40 µg/mL / viability at 25 µg/mL: Homo sapiens, NCI-H460, read-out: V(%) cancer cell viability; for inhibitory effect on proliferation of H460 cells compared with Rh2 (in words): P<0.05 compared with that of Rh2
Description: Composition: 20(S)-Rh2 was provided by Shenyang Pegasus Pharmaceutical R&D Co., China, with a purity of over 98%. The molecular weight for Rh2 was 622.3. Sapogenins PAM-120, PBM-100 and PAN-30 were derived from the process stated in Example 1. The molecular weights of PAM-120, PBM-100 and PAN-30 were respectively 442.7, 474.7 and 766.6, and the purity for each of the three agents was higher than 99%. Rh2, PAM-120, PBM-100 and PAN-30 were dissolved 1 gram each separately in 100 ml absolute ethanol and stored at 4° C. the agents were diluted with RPMI-1640 medium to the desired concentrations as shown in Table 1.
Cells: Human non-small-cell lung carcinoma H460 cells were incubated in RPMI-1640 medium added with 10% fetal calf serum, 100 units penicillin/ml, and 100 μg streptomycin/ml in 5% CO2 at 37° C.
In vitro treatment: H460 cells were seeded in 96-well flat-bottomed microtest-plates at 1.2×10^3 cells per well, six wells in each group, incubated in humidified 5% CO2 at 37° C. for 24 hours with or without the agents according to the schedule as shown below.
After the 24 hours of incubation, an equal volume of 10% formalin phosphate-buffered saline containing 0.2% crystal violet was added to each well and left at room temperature for 20 minutes. The plates were then washed twice with distilled water and dried at room temperature. The absorbency of the stained cells at 590 nm was then measured using an automatic microtest-plate reader. Average absorbency of the control wells (Ac) without any treatment was calculated, average absorbency of each treatment group (ATi) was determined, and then the average cell viability of each treatment group (Vi) was derived using the following formula: [formula] B. Result

[2] = system: human malignant glioma cells (U87); experiment: Mouse subcutaneous human malignant glioma (U87) model (FIG. 6); assay type: in vivo, Nude mice; conditions: 25 mg/ml; for tumor growth compared with PBS control animals (in words): treatment from day 7, tumor sizes measured day 7 and day 24
Description: FIG. 6 illustrates a graph of the therapeutic effect of PAM-120 on mouse subcutaneous human malignant glioma (U87) model. Nude mice were subcutaneously implanted with human malignant glioma cells (U87). On day 7 post tumor implantation, animals were treated with 25 mg/ml PAM-120 or equal dose of Rh2. Tumor sizes were measured on day 7 (before treatment) and day 24 (after the treatment).

Murine sarcoma 180 cells = experiment: Cancer bearing mice life prolongation test; assay type: in vivo, C57BL/6J mice; conditions: for DS50 (days of survival for 50% animals) / LPR(%) life prolongation rate: oral, lifetime or up to 120 days
Source text: Fifty (50) C57BL/6J mice weighing 18-22 g, without sex discrimination, were randomly assigned to one control group and four treatment groups, each with 10 animals. Murine sarcoma 180 cells were intraperitoneally transplanted to the mice. 20(S)-Rh2 was provided by Shenyang Pegasus Pharmaceutical R&D Co., China, with a purity of over 98%. The molecular weight for Rh2 was 622.3. The novel sapogenin PAM-120 was derived from the process described in Example 2 according to this invention. The molecular weight of PAM-120 was 442.7, and the purity for PAM-120 was higher than 99%. The drugs were prepared into a suspension form respectively. The mice were weighed daily prior to drug administration to determine the actual measurement of drug administered. Drug administration started from 24 hours post tumor inoculation. The mice in the two low-dose treatment groups were orally given the Rh2 and PAM-120 preparations using a gastric catheter at a daily dose of 10 mg/kg of Rh2 and 10 mg/kg of PAM-120 respectively for a lifetime or up to 120 days. The mice in the two high-dose treatment groups were orally given the Rh2 and PAM-120 preparations using a gastric catheter at a daily dose of 25 mg/kg of Rh2 and 25 mg/kg of PAM-120 respectively for a lifetime or up to 120 days. The mice in the control group were orally given a normal saline. For each group, the days of survival for 50% animals (DS50) and the average days of survival (ADS) were recorded. For groups containing one or more animals that could have lived longer than 120 days (the designed sacrifice day was d 120), the ADS would be so calculated that these animals were counted as if they had died on day 120, and a note would be made. The life prolongation rate (LPR) was calculated with the following formula: [formula] B. Result

[3] = system: human malignant glioma cells (U87); experiment: Mouse intracranial human malignant glioma (U87) model (FIG. 5); assay type: in vivo, Nude mice; conditions: 25 mg/kg and 50 mg/kg, treatment from day 10 post implantation, p<0.01 Kaplan Meier
Description: FIG. 5 illustrates a graph of the therapeutic effect of PAM-120 on mouse intracranial human malignant glioma (U87) model. Nude mice were intracranially implanted with human malignant glioma cells (U87). On day 10 post tumor implantation, animals were treated with various dosages of PAM-120.

Row | Compound | V(%) cancer cell viability ([1]; high-dose 40 μg/ml) | Absorbency of Stained Cells (M ± SD) ([1]; high-dose 40 μg/ml) | V(%) cancer cell viability ([1]; low-dose 25 μg/ml) | Absorbency of Stained Cells (M ± SD) ([1]; low-dose 25 μg/ml) | inhibitory effect on proliferation of H460 cells (in words) [1] | viability at 40 µg/mL ([1]; high-dose 40 μg/ml) | viability at 25 µg/mL ([1]; low-dose 25 μg/ml) | inhibitory effect on proliferation of H460 cells compared with Rh2 (in words) [1] | tumor growth compared with PBS control animals (in words) [2] | DS50 (days of survival for 50% animals) (Murine sarcoma 180 cells; 10 mg/kg daily) | LPR(%) life prolongation rate (Murine sarcoma 180 cells; 10 mg/kg daily) | DS50 (days of survival for 50% animals) (Murine sarcoma 180 cells; 25 mg/kg daily) | LPR(%) life prolongation rate (Murine sarcoma 180 cells; 25 mg/kg daily) | survival time after tumor implantation (in words) [3] | tumor sizes compared with Rh2 treated animals (in words) ([2]; equal dose of Rh2, day 24, p<0.05) | mice that survived the whole 120 days, no tumors found postmortally (Murine sarcoma 180 cells; 25 mg/kg treatment group, 10 animals) | anti-cancer effect on murine sarcoma compared with Rh2 (in words) (Murine sarcoma 180 cells; P<0.01 compared with relevant Rh2 treatment dose groups) | life prolongation of mice bearing murine sarcoma compared with control (in words) (Murine sarcoma 180 cells; P<0.01 compared with the average days of survival in the control)
1 | 3-O-[β-D-glucopyranosyl(1→2)-β-D-glucopyranosyl]-dammara-20(22E)-diene-3,12-diol [PAN-30] | 41.49% | .147 ± .032 | 70.30% | .249 ± .045 | significant inhibitory effect | – | – | – | – | – | – | – | – | – | – | – | – | –
2 | C=C(C)[C@H](O)C/C=C(\C)C1CC[C@]2(C)C1[C@H](O)CC1[C@@]3(C)CC[C@H](O)C(C)(C)C3[C@@H](O)C[C@]12C (stereo partly drawn) [PBM-100] | – | .130 ± .019 | – | .223 ± .040 | significant inhibitory effect | 36.5% | 62.7% | notable increase in inhibitory effect | – | – | – | – | – | – | – | – | – | –
3 | CC(C)=CCC[C@](C)(O)[C@H]1CC[C@]2(C)[C@@H]1[C@H](O)C[C@@H]1[C@@]3(C)CC[C@H](O[C@@H]4O[C@H](CO)[C@@H](O)[C@H](O)[C@H]4O)C(C)(C)[C@@H]3CC[C@]12C [Rh2, 3-O-β-D-glucopyranosyl-20(s)-protopanaxadiol, reference compound] | 50.99% | .181 ± .049 | 78.49% | .278 ± .030 | – | – | – | – | significantly inhibited tumor growth | 22 days | 68.0% | 41 days | 201.4% | – | – | – | – | –
4 | C=C(CCC=C(C)C)C1CC[C@]2(C)C1[C@H](O)CC1[C@@]3(C)CC[C@H](O)C(C)(C)C3CC[C@]12C (stereo partly drawn) [PAM-120, Dammara-20(21)-diene-3,12-diol] | – | .125 ± .031 | – | .220 ± .051 | significant inhibitory effect | 35.3% | 62.1% | notable increase in inhibitory effect | significantly inhibited tumor growth | 38 days | 162.6% | 77 days | 448.3% | significantly longer survival time | significantly smaller | Two | Better anti-cancer effect | significant increase in life prolongation
